In the NIST ThermoML archive (doi:10.1021/je050085p):

Key:
[1] = 101.33 kPa, Liquid
[2] = refractive index (Na D-line) (dimensionless); conditions: 101.33 kPa, Liquid, Standard Abbe refractometry
[3] = xn = mol fraction of the nth substance listed; conditions: 308.15 K, 101 kPa, Liquid
[4] = refractive index (Na D-line) (dimensionless); xn = mol fraction of the nth substance listed; conditions: 308.15 K, 101 kPa, Liquid, Standard Abbe refractometry
[5] = excess molar enthalpy (molar enthalpy of mixing); xn = mol fraction of the nth substance listed; conditions: 308.15 K, 101 kPa, Liquid, Flow calorimetry

OCc1ccccc1 [benzenemethanol]
Conditions	mass density, [1] [kg/m3]	refractive index, [2]
298.15 K	1041.65	1.5377
308.15 K	1033.64	1.535

OCc1ccccc1 [benzenemethanol] + COc1ccccc1
Conditions	excess molar enthalpy [kcal/mol]	mass density [kg/m3]	refractive index
[3], x2 = 0.0519	–	1030.85	–
[3], x2 = 0.0898	–	1028.81	–
[3], x2 = 0.1854	–	1023.62	–
[3], x2 = 0.2883	–	1018	–
[3], x2 = 0.3766	–	1013.19	–
[3], x2 = 0.4911	–	1006.94	–
[3], x2 = 0.5916	–	1001.47	–
[3], x2 = 0.6747	–	996.96	–
[3], x2 = 0.7745	–	991.59	–
[3], x2 = 0.9039	–	984.73	–
[3], x2 = 0.9448	–	982.58	–
[3], x2 = 0.9723	–	981.14	–
[4], x2 = 0.0519	–	–	1.5335
[4], x2 = 0.0898	–	–	1.5324
[4], x2 = 0.1854	–	–	1.5298
[4], x2 = 0.2883	–	–	1.527
[4], x2 = 0.3766	–	–	1.5247
[4], x2 = 0.4911	–	–	1.5218
[4], x2 = 0.5916	–	–	1.5193
[4], x2 = 0.6747	–	–	1.5173
[4], x2 = 0.7745	–	–	1.5149
[4], x2 = 0.9039	–	–	1.5118
[4], x2 = 0.9448	–	–	1.5108
[4], x2 = 0.9723	–	–	1.5102
[5], x2 = 0.038	0.022	–	–
[5], x2 = 0.0732	0.0461	–	–
[5], x2 = 0.1059	0.0655	–	–
[5], x2 = 0.1364	0.0877	–	–
[5], x2 = 0.1916	0.121	–	–
[5], x2 = 0.2401	0.148	–	–
[5], x2 = 0.3216	0.182	–	–
[5], x2 = 0.3871	0.203	–	–
[5], x2 = 0.4866	0.232	–	–
[5], x2 = 0.5872	0.249	–	–
[5], x2 = 0.6547	0.254	–	–
[5], x2 = 0.7398	0.252	–	–
[5], x2 = 0.7913	0.24	–	–
[5], x2 = 0.8505	0.211	–	–
[5], x2 = 0.8835	0.185	–	–
[5], x2 = 0.9191	0.146	–	–
[5], x2 = 0.9578	0.0877	–	–

CCOc1ccccc1 [ethoxybenzene]
Conditions	mass density, [1] [kg/m3]	refractive index, [2]
298.15 K	–	1.5058
308.15 K	950.86	1.5002

CCOc1ccccc1 [ethoxybenzene] + OCCc1ccccc1
Conditions	excess molar enthalpy [kcal/mol]	mass density [kg/m3]	refractive index
[3], x1 = 0.0656	–	1004.96	–
[3], x1 = 0.1079	–	1002.5	–
[3], x1 = 0.1726	–	998.71	–
[3], x1 = 0.3041	–	990.99	–
[3], x1 = 0.3803	–	986.52	–
[3], x1 = 0.4826	–	980.37	–
[3], x1 = 0.5243	–	978.09	–
[3], x1 = 0.5904	–	974.22	–
[3], x1 = 0.6819	–	968.87	–
[3], x1 = 0.7929	–	962.44	–
[3], x1 = 0.8881	–	957	–
[3], x1 = 0.9469	–	953.74	–
[3], x1 = 0.9881	–	951.5	–
[4], x1 = 0.0656	–	–	1.5252
[4], x1 = 0.1079	–	–	1.524
[4], x1 = 0.1726	–	–	1.5223
[4], x1 = 0.3041	–	–	1.5187
[4], x1 = 0.3803	–	–	1.5166
[4], x1 = 0.4826	–	–	1.5137
[4], x1 = 0.5243	–	–	1.5126
[4], x1 = 0.5904	–	–	1.5108
[4], x1 = 0.6819	–	–	1.5083
[4], x1 = 0.7929	–	–	1.5054
[4], x1 = 0.8881	–	–	1.5029
[4], x1 = 0.9469	–	–	1.5014
[4], x1 = 0.9881	–	–	1.5005
[5], x1 = 0.0378	0.027	–	–
[5], x1 = 0.0728	0.0534	–	–
[5], x1 = 0.1054	0.0772	–	–
[5], x1 = 0.1358	0.0979	–	–
[5], x1 = 0.1907	0.135	–	–
[5], x1 = 0.2391	0.159	–	–
[5], x1 = 0.3203	0.193	–	–
[5], x1 = 0.3858	0.218	–	–
[5], x1 = 0.4852	0.245	–	–
[5], x1 = 0.5857	0.268	–	–
[5], x1 = 0.6534	0.275	–	–
[5], x1 = 0.7388	0.273	–	–
[5], x1 = 0.7904	0.264	–	–
[5], x1 = 0.8498	0.232	–	–
[5], x1 = 0.8829	0.204	–	–
[5], x1 = 0.9188	0.161	–	–
[5], x1 = 0.9577	0.0965	–	–

CCOc1ccccc1 [ethoxybenzene] + OCc1ccccc1
Conditions	excess molar enthalpy [kcal/mol]	mass density [kg/m3]	refractive index
[3], x1 = 0.0642	–	1027.61	–
[3], x1 = 0.0826	–	1025.86	–
[3], x1 = 0.1663	–	1018.18	–
[3], x1 = 0.1751	–	1017.38	–
[3], x1 = 0.2585	–	1009.89	–
[3], x1 = 0.3363	–	1003.06	–
[3], x1 = 0.4598	–	992.51	–
[3], x1 = 0.544	–	985.53	–
[3], x1 = 0.6369	–	978.04	–
[3], x1 = 0.7572	–	968.65	–
[3], x1 = 0.8621	–	960.77	–
[3], x1 = 0.9361	–	955.37	–
[4], x1 = 0.0642	–	–	1.5322
[4], x1 = 0.0826	–	–	1.5313
[4], x1 = 0.1663	–	–	1.5279
[4], x1 = 0.1751	–	–	1.5275
[4], x1 = 0.2585	–	–	1.5244
[4], x1 = 0.3363	–	–	1.5216
[4], x1 = 0.4598	–	–	1.5172
[4], x1 = 0.544	–	–	1.5142
[4], x1 = 0.6369	–	–	1.5111
[4], x1 = 0.7572	–	–	1.5071
[4], x1 = 0.8621	–	–	1.5039
[4], x1 = 0.9361	–	–	1.5018
[5], x1 = 0.0328	0.0247	–	–
[5], x1 = 0.0636	0.0454	–	–
[5], x1 = 0.0924	0.0677	–	–
[5], x1 = 0.1195	0.0854	–	–
[5], x1 = 0.1691	0.118	–	–
[5], x1 = 0.2135	0.147	–	–
[5], x1 = 0.2893	0.177	–	–
[5], x1 = 0.3517	0.205	–	–
[5], x1 = 0.4488	0.232	–	–
[5], x1 = 0.5499	0.252	–	–
[5], x1 = 0.6196	0.262	–	–
[5], x1 = 0.7095	0.266	–	–
[5], x1 = 0.7651	0.259	–	–
[5], x1 = 0.8301	0.232	–	–
[5], x1 = 0.8669	0.209	–	–
[5], x1 = 0.907	0.169	–	–
[5], x1 = 0.9513	0.104	–	–
